{"source": "patent US10905704B2", "about": "“Agents and methods using thereof for the prevention and treatment of stem cell muscle disorders” (ECOLE POLYTECHNIQUE FEDERALE DE LAUSANNE (EPFL), priority 2015, dated 2021)", "tested_on": "C2C12 cells", "assay": "Western blot of UPRmt, prohibitins and cell cycle proteins in TAP-treated C2C12 cells", "assay_type": "cell-based, mouse", "details": "50 μg/ml TAP, FIG. 7", "experimental": "Western blotting. C2C12 cells were lysed in a buffer composed of 50 mM Tris, 150 mM KCl, EDTA 1 mM, NP40 1%, nicotinamide 5 mM, sodium butyrate 1 mM and protease inhibitors cocktail (Roche) at pH 7,4. Proteins were separated by SDS-PAGE and transferred onto nitrocellulose membranes. Blocking and antibody incubations were performed in 3% BSA. The following primary antibodies were used: anti-cleavage caspase 3 (Cell Signalling); Anti-γH2AX (Millipore); anti-β-actin (Sigma). All secondary antibodies were from Jackson Immunoresearch. Antibody detection reactions were developed by enhanced chemiluminescence (Advansta, Calif., USA) using x-ray films or imaged using the c300 imaging system (Azure Biosystems). The following primary antibodies were used: anti-HSP60 (Enzo Life Science); anti-PHB (Biolegend); anti-PHB2 (Santa Cruz); anti-CKD4 (Novus biologicals); anti-CCND1 (Santa Cruz); anti-CCND3 (Santa Cruz); anti-HSP90 (BD Biosciences); HSP70 (Abcam); anti-MT-CO1 (Bio legend); anti-ATP5A (Bio legend); anti-Grp78 (Abcam); and anti-CLPP (Sigma).", "data": [{"compound": "CS(=O)(=O)c1ccc([C@@H](O)[C@@H](CO)NC(=O)C(Cl)Cl)cc1", "note": "[thiamphenicol]", "values": [{"measurement": "UPRmt induction", "value": "UPR^mt induction"}, {"measurement": "cell cycle gene expression", "value": "induced"}, {"measurement": "prohibitins expression", "value": "induced"}]}]}
